Results from ChEMBL document CHEMBL5214928, “DEAD-Box Helicase DDX3X as a Host Target against Emerging Viruses: New Insights for Medicinal Chemical Approaches” (J Med Chem, 2022).

Legend:
[1] = biological target: T1, ATP-dependent RNA helicase DDX3X (Homo sapiens, UniProt O00571); assay: Inhibition of recombinant DDX3X (unknown origin) helicase activity using 6-FAM-labeled dsRNA as substrate incubated for 30 mins by fluorescence based assay
[2] = biological target: T1, ATP-dependent RNA helicase DDX3X; assay: Binding affinity to DDX3X (unknown origin) assessed as inhibition constant
[3] = Half life in mouse administered intraperitoneally; format: ADME; details: in vivo, route ip
[4] = biological target: T1, ATP-dependent RNA helicase DDX3X; assay: Inhibition of DDX3X (unknown origin) helicase activity
[5] = test system: Human immunodeficiency virus 1; assay: Antiviral activity against recombinant HIV-1 infected in CD4+ human HeLa cells assessed as reduction in viral replication; format: functional, organism-based; details: Human immunodeficiency virus 1, HeLa
HeLa = assay: Cytotoxicity against human HeLa cells assessed as reduction in cell viability incubated for 72 hrs with replacement of medium containing compound for every 24 hrs by MTS based Cell Titer 96 viability assay; format: functional
[6] = Selectivity index, ratio of CC50 for human HeLa cells to EC50 for recombinant HIV-1 infected in CD4+ human HeLa cells; format: toxicity, cell-based; details: read-out: Ratio CC50/EC50
SARS-CoV-2 = assay: Antiviral activity against SARS-CoV-2 isolate 2019-nCoV/Italy-INMI1 infected in African green monkey Vero E6 cells assessed as reduction in viral replication at MOI of 0.01 incubated for 5 days by qRT-PCR analysis; format: functional, organism-based; details: Severe acute respiratory syndrome coronavirus 2, 2019-nCoV/Italy-INMI1, Vero C1008, 120 h
[7] = Cytotoxicity against African green monkey Vero E6 cells assessed as reduction in cell viability; format: toxicity, cell-based, Vero C1008; details: chlorocebus sabaeus
[8] = test system: Human immunodeficiency virus 1; assay: Antiviral activity against HIV-1 NL4-3 infected in human H9 cells assessed as reduction in viral replication at MOI of 0.03 measured after 48 hrs by Bright-Glo Luciferase Assay; format: functional, organism-based; details: Human immunodeficiency virus 1, NL4-3, H9, 48 h
H9 = assay: Cytotoxicity against human H9 cells assessed as reduction in cell viability incubated for 72 hrs by luciferase based assay; format: functional
[9] = Selectivity index, ratio of CC50 for human H9 cells to EC50 for HIV-1 NL4-3 infected in human H9 cells; format: toxicity, cell-based; details: read-out: Ratio CC50/EC50

T1 sequence (O00571 whole entry): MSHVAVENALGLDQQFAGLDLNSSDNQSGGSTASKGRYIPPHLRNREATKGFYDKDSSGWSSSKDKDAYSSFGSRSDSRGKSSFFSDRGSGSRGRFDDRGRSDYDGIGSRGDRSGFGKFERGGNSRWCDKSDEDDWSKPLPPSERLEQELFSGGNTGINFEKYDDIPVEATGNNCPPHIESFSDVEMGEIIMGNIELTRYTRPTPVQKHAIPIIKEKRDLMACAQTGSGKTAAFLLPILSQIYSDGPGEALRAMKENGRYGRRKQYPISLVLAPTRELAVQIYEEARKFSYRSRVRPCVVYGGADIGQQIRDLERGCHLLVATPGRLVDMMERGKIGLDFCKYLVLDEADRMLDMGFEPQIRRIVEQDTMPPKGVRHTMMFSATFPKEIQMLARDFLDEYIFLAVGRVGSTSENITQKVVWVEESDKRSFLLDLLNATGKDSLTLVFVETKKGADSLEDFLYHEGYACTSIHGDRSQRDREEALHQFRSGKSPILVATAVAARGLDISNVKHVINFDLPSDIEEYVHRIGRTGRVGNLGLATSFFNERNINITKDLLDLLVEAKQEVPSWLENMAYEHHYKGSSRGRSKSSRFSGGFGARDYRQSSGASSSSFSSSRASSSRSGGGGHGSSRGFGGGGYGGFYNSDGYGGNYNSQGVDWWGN

For O=C(O)c1cc(Nc2nc3ccccc3[nH]2)ccc1O, which IC50 [1] is on record?
The IC50 was 0.2 µM.

For Cc1ccc(Nc2nc(N/N=C/c3ccccc3O)nc(NN3CCOCC3)n2)cc1Cl, which Ki [2] is on record?
The Ki was 1.6 µM.

For CCCCc1cn(-c2ccc(NC(=O)Nc3ccccc3C(F)(F)F)cc2)nn1, which half-life [3] is on record?
Its half-life is 5 h.

For CCCCc1cn(-c2ccc(NC(=O)Nc3ccccc3OC3CCCC3)cc2)nn1, which IC50 [4] is on record?
Its IC50 is 0.14 µM.

With CC(C)Cc1cn(-c2ccc(NC(=O)Nc3ccccc3F)cc2)nn1 as the molecule, how does the IC50 [4] read?
The IC50 was 0.12 µM.

With Cc1cccc(NC(=O)CCN2C(=O)/C(=C/c3ccccc3O)SC2=S)c1 as the molecule, how does the Ki [2] read?
Its Ki is 97 µM.

With Oc1ccccc1/C=N/Nc1nc(NCc2ccccc2)nc(NN2CCOCC2)n1 as the molecule, how does the Ki [2] read?
The Ki was 0.6 µM.

Which Ki [2] does the source give for O=C1S/C(=C\c2c(NCCO)nc3ccccn3c2=O)C(=O)N1CCc1ccccc1 here?
Its Ki is 0.2 µM.

Which Ki [2] does the source give for CCN(CC)Nc1nc(N/N=C/c2ccccc2O)nc(Nc2ccccc2)n1 here?
Its Ki is 0.1 µM.

What does the source list for CC(=O)Nc1ccc(/C=N/Nc2nc(Nc3ccccc3)nc(Nc3ccccc3)n2)cc1?
Ki [2]: 0.3 µM; EC50 [5]: 2 µM; CC50 (HeLa): 10 µM; selectivity ratio [6]: 5

For O=C(CCN1C(=O)/C(=C/c2cccc(F)c2)SC1=S)Nc1ccccc1O, which Ki [2] is on record?
The Ki was 7.6 µM.

For CCCCc1cn(-c2ccc(NC(=O)Nc3ccccc3F)cc2)nn1, which IC50 [4] is on record?
The IC50 was 0.6 µM.

For O=C(CCN1C(=O)/C(=C/c2ccccc2O)SC1=S)Nc1cc(F)cc(F)c1, which Ki [2] is on record?
The Ki was 0.5 µM.

For CCCCc1cn(-c2ccc(NC(=O)Nc3ccc(C)nc3)cc2)nn1, which IC50 [4] is on record?
Its IC50 is 1.5 µM.

For CC(=O)Nc1ccc(/C=N/Nc2nc(NCc3ccccc3)nc(Nc3ccccc3)n2)cc1, which Ki [2] is on record?
Its Ki is 0.5 µM.

With CC(=O)Nc1ccc(/C=N/Nc2nc(Nc3ccccc3)nc(NN3CCOCC3)n2)cc1 as the molecule, how does the Ki [2] read?
The Ki was 2.2 µM.

Which Ki [2] does the source give for O=C(CCN1C(=O)/C(=C/c2ccccc2O)SC1=S)Nc1cccc(F)c1 here?
The Ki was 0.3 µM.

And the EC50 [5]?
The EC50 was 7.5 µM.

What about the CC50 (HeLa) of the same molecule?
Its CC50 is 50 µM.

What about the EC50 (SARS-CoV-2) of the same molecule?
The EC50 was less than 5 µM.

And the CC50 [7]?
The CC50 was greater than 100 µM.

What about the selectivity ratio [6] of the same molecule?
Its selectivity ratio is 7.

For CC(C)Cc1cn(-c2ccc(NC(=O)Nc3cccc(F)c3)cc2)nn1, which IC50 [4] is on record?
The IC50 was 0.2 µM.

With O=C(NCCN1C(=O)/C(=C/c2ccccc2O)SC1=S)c1cccc(F)c1 as the molecule, how does the Ki [2] read?
The Ki was 4.3 µM.

For Oc1ccccc1/C=N/Nc1nc(NCc2ccc(F)cc2)nc(NN2CCOCC2)n1, which Ki [2] is on record?
The Ki was 0.7 µM.

What does the source list for O=C(O)c1ccccc1C(=O)Nc1nnc(-c2ccc(O)cc2)s1?
EC50 [8]: 2.8 µM; CC50 (H9): 125 µM; selectivity ratio [9]: 45
